This is an account of results in patent US20260223593A1, “Organic Compound, Light-Emitting Device, Display Apparatus, And Electronic Appliance” (Semiconductor Energy Laboratory Co., Ltd., priority 2023, published 2026).

The structures appear in SMILES notation. Values after ≈ are worked out from the molar mass of the structure shown.

This data set is described as follows: Solubility test of Ph3TP-hpp by LC/MS analysis (water solubility). Format: physicochemical. As for the experimental part: In the LC/MS analysis, LC (liquid chromatography) separation was carried out with Acquity UPLC (registered trademark) produced by Waters Corporation, and MS analysis (mass spectrometry) was carried out with Xevo G2 Tof MS produced by Waters Corporation. Acquity UPLC BEH C8 (2.1×100 mm, 1.7 μm) was used as a column for the LC separation. Acetonitrile was used for Mobile Phase A and a 0.1% aqueous solution of formic acid was used for Mobile Phase B. The injection amount of the sample was 5.0 μL. Note that in the analysis, the wavelength of a photodiode array detector was set to 246 nm±1 nm.
In a 5-mL sample bottle, 1 mg of Ph3TP-hpp was put and 2 mL of toluene was added thereto, and then this mixture was irradiated with ultrasonic waves for five minutes. After it was confirmed that the solid was completely dissolved, this solution was diluted by 2.5 times with acetonitrile, whereby the concentration of the solution was adjusted to 200 mg/L. This solution was diluted with acetonitrile, whereby solutions with concentrations of 20 mg/L, 10 mg/L, and 4 mg/L were prepared. The prepared solutions were subjected to LC/MS analysis, and the peak area values derived from Ph3TP-hpp, which were obtained at the respective solution concentrations, were used to form calibration curves.
Next, the water solubility of Ph3TP-hpp was measured.
In a 5-mL sample bottle, 1 mg of Ph3TP-hpp was put and 1 mL of water was added thereto, and then this mixture was irradiated with ultrasonic waves for five minutes. This mixture was filtered through a membrane filter to remove the solid, and the obtained filtrate was diluted by five times with acetonitrile. The obtained solution was subjected to LC/MS analysis.

Regarding `c1ccc(-c2cc(-c3cccc(N4CCCN5CCCN=C54)c3)c(-c3ccccc3)c(-c3ccccc3)c2-c2ccccc2)cc1` [Ph3TP-hpp, 1-(3′,4′,5′-triphenyl-1,1′:2′,1″-terphenyl-3-yl)-1,3,4,6,7,8-hexahydro-2H-pyrimide[1,2-a]pyrimidine], the “solubility of Ph3TP-hpp dissolved in 1 mL of water” value (1 mg in 1 mL of water, ultrasonic waves five minutes, membrane filtered, filtrate by LC/MS against calibration curve) was 0.031 mg. Further, the solubility (commonly how much of the substance goes into solution per volume) at 5 min (thermodynamic from solid, water, from 0.031 mg in 1 mL, read-out: weight fraction of the water solubility) turned out to be 31 µg/mL (≈ 52 µM). The “water solubility (in words)” value (water, LC/MS solubility test) is given as “low water solubility”.
